Measurements taken from patent US11998540B2, “Compositions and methods for treating drug-tolerant glioblastoma” (THE GENERAL HOSPITAL CORPORATION, priority 2015, dated 2024).
“Also recorded” adds a separate entry of the source.

Tests used:
GSC8 [1] = assay: Cell growth assay ([…]-GLO), GSC8 naïve; assay type: cell-based, human; settings: for sensitivity / effect on cell growth (dose-response): 4 day treatment, GSC8 naïve
Protocol: (§1) Patient-derived GSC culture lines were maintained in Neurobasal medium (Life Technologies) supplemented with N2/B27, penicillin/streptomycin (Life Technologies), GlutaMAX (Life Technologies), recombinant human EGF (20 ng/mL, R & D systems), and recombinant human FGF2 (20 ng/mL, R & D systems). For drug persister cultures, fresh compound and media were replenished every 4-6 days.
(§2) Freshly dissociated single cell suspensions were plated (96-well) in triplicate or quadruplicate at 1,000 to 10,000 cells/well for testing. For 4 day growth assays, […]-GLO® Luminescent Cell Viability Assay (Promega) was added to wells and end point luminescence was measured (BioTek Synergy HT Platereader). For 12 day assays, 1× compound in media was added at day 4 and all wells were replated with fresh media and compound at day 8 before viability was measured at day 12. For each inhibitor, n=3 replicates were used for each concentration and was repeated in two to four independent experiments.

GSC8^Per = assay: Cell growth assay (CELLTITER-GLO), dasatinib persisters GSC8^Per; assay type: cell-based, human; settings: for sensitivity / effect on cell growth (dose-response): 4 day treatment, GSC8^Per (>8 weeks dasatinib); for growth, 12 day treatment: GSC8^Per vs GSC8 naïve
Protocol: as §1, §2

GSC8^12d = assay: Cell growth assay (CELLTITER-GLO), GSC8 treated 12 days with dasatinib; assay type: cell-based, human; settings: 4 day treatment
Protocol: as §1, §2

H3K4me3 = H3K4me3 ChIP-seq in GSC8; assay type: cell-based, human; settings: for H3K4me3 peak width / level: naïve GSCs, KDM5-C70 2.5 μM or GSKJ4 1.5 μM, 4 d
Protocol: Chromatin Immunoprecipitation (ChIP) was performed as previously described (Suvà et al., 2014). Briefly, formaldehyde-fixed cells were lysed and sheared (Branson […]) on wet ice. The sheared chromatin was cleared and incubated overnight at 4° C. with the following antibodies: H3K4me3 (Millipore, 07-473, Lot 2207275), H3K27me3 (Millipore, 07-449, lot 2382150), H3K27ac (Active Motif, 39133 lot 25812006), RBPJ (Abcam, ab25949, lot GR169397-1), and cleaved Notch1 (CST, 4147, lot #4). Antibody-chromatin complexes were immunoprecipitated with protein G magnetic Dynal beads (Life Technologies), washed, eluted, reverse crosslinked, and treated with RNAse A followed by proteinase K. ChIP DNA was purified using Ampure XP beads (Beckmann Coulter) and then used to prepare sequencing libraries for sequencing with the Next-Seq Illumina genome analyzer. Reads were aligned to hg19 using BWA (Li and Durbin, 2009) and identical ChIP-seq sequence reads were collapsed to avoid PCR duplicates. In order to avoid possible saturation biases, reads were downsampled to approximately similar numbers ( 20 million reads). Peaks were called using HOMER v4.6 (Heinz et al., 2010) using matched inputs with the following parameters: H3K4me3, -histone -tagThreshold 30; H3K27ac, -histone -tagThreshold 50; H3K27me3, -histone -size 3000 -[…] 0.1; Notch1 ICD, -factor; and RBPJ, -factor. […] Quantification of the H3K27me3 ChIP-seq signals, using fore- and background normalization, was essentially performed as outlined in (Zhu et al., 2013) with few modifications. To exclude genomic regions with potential copy number aberrations, read counts derived from whole cell extracts ChIP-seq within 5 kb genomic windows were quantified. Read counts were performed using interval overlap functions of the R package Genomic Ranges (Lawrence et al., 2013). To compute normalization constants, all genomic windows with read counts equal to 0 or greater than 3 standard deviations from the mean were excluded from the analysis. For a given H3K27me3 ChIP-seq data set, the background constant was estimated as the median of the read count distribution within 5 kb windows overlapping the 5% most highly expressed genes, as active genes are considered to be devoid of repressive chromatin modifications. The foreground signal was estimated as the median of the read count distribution within 5 kb windows centered around each called peak and subtracting the background signal. To quantify H3K27me3 signal within 5 kb regions of interest, the background signal was subtracted from the corresponding read count and the resulting value divided by the foreground signal. […] In order to quantify ChIP-seq intensities within genomic regions of different sizes (e.g. genes), the obtained normalization constants were scaled accordingly. […]

KDMs = assay: qRT-PCR of KDM gene expression in GSC8; assay type: cell-based, human; settings: 48 hr drug treatment in GSC8
Protocol: Whole RNA was extracted from 1-3×10^6 cells using the QIAGEN RNeasy kit according to the manufacturer's protocol. For qRT-PCR, total RNA was reverse-transcribed into cDNA (High Capacity cDNA Reverse Transcriptase Kit, Applied Biosystems) and qRT-PCR amplification was performed using fast SYBR Green Master Mix (Life Technologies) with specific PCR primers for genes of interest and 18S as an endogenous control. Relative quantification for each target was performed using the comparative Ct method (Applied Biosystems). For RNA-seq library preparation, Poly(A)^+ RNA was enriched using magnetic oligo(dT)-beads (Life Technologies) and libraries were prepared as previously described (Gifford et al., 2013). Sequences for qRT-PCR primers used are listed at Table 3.

H3K27me3 = H3K27me3 ChIP-seq in GSC8; assay type: cell-based, human
Protocol: Chromatin Immunoprecipitation (ChIP) was performed as previously described (Suvà et al., 2014). Briefly, formaldehyde-fixed cells were lysed and sheared (Branson […]) on wet ice. The sheared chromatin was cleared and incubated overnight at 4° C. with the following antibodies: H3K4me3 (Millipore, 07-473, Lot 2207275), H3K27me3 (Millipore, 07-449, lot 2382150), H3K27ac (Active Motif, 39133 lot 25812006), RBPJ (Abcam, ab25949, lot GR169397-1), and cleaved Notch1 (CST, 4147, lot #4). Antibody-chromatin complexes were immunoprecipitated with protein G magnetic Dynal beads (Life Technologies), washed, eluted, reverse crosslinked, and treated with RNAse A followed by proteinase K. ChIP DNA was purified using Ampure XP beads (Beckmann Coulter) and then used to prepare sequencing libraries for sequencing with the Next-Seq Illumina genome analyzer. Reads were aligned to hg19 using BWA (Li and Durbin, 2009) and identical ChIP-seq sequence reads were collapsed to avoid PCR duplicates. In order to avoid possible saturation biases, reads were downsampled to approximately similar numbers ( 20 million reads). […] Quantification of the H3K27me3 ChIP-seq signals, using fore- and background normalization, was essentially performed as outlined in (Zhu et al., 2013) with few modifications. To exclude genomic regions with potential copy number aberrations, read counts derived from whole cell extracts ChIP-seq within 5 kb genomic windows were quantified. Read counts were performed using interval overlap functions of the R package Genomic Ranges (Lawrence et al., 2013). To compute normalization constants, all genomic windows with read counts equal to 0 or greater than 3 standard deviations from the mean were excluded from the analysis. For a given H3K27me3 ChIP-seq data set, the background constant was estimated as the median of the read count distribution within 5 kb windows overlapping the 5% most highly expressed genes, as active genes are considered to be devoid of repressive chromatin modifications. […]

GSC8 [2] = assay: Flow cytometry for Ki67 and EdU incorporation in GSC8; settings: 1 μM
GSC8 PD0325901^Per = assay: Cell growth assay ([…]-GLO), MEK inhibitor persisters; assay type: cell-based, human; settings: 4 day treatment; persisters from sustained MEK inhibition
Protocol: as §1, §2

CCOC(=O)c1ccnc(CNCC(=O)N(CC)CCN(C)C)c1 [KDM5-C70]
sensitivity / effect on cell growth (dose-response) (GSC8 [1]): subtle effects on proliferation | effect on dasatinib dose-response curve (GSC8 [1]; 4 day, GSC8 naïve simultaneously treated with KDM5-C70 2.5 μM vs vehicle): No significant effect | sensitivity / effect on cell growth (dose-response) (GSC8^Per): subtle effects on proliferation | sensitivity / effect on cell growth (dose-response) (GSC8^12d): subtle effects on proliferation | H3K4me3 peak width / level (H3K4me3): caused H3K4me3 peaks to expand; also recorded: H3K4me3 peak width increases | rescue of H3K4me3 reduction associated with dasatinib treatment (H3K4me3; with 4 day dasatinib): partially rescued; also recorded: significantly attenuated H3K4me3 reduction

O=C(NOC[C@H](O)CO)c1ccc(F)c(F)c1Nc1ccc(I)cc1F [PD0325901]
sensitivity / effect on cell growth (dose-response) (GSC8 [1]): differentially sensitive | KDM gene expression (KDMs): KDM induction; also recorded: up-regulation of numerous KDMs

Cc1nc(Nc2ncc(C(=O)Nc3c(C)cccc3Cl)s2)cc(N2CCN(CCO)CC2)n1 [dasatinib]
IC50 (GSC8 [1]; Homo sapiens, 96 h): ~10 nM | sensitivity / effect on cell growth (dose-response) (GSC8^Per): relatively insensitive; also recorded: tolerated higher concentrations | H3K4me3 at cell cycle-associated promoters (H3K4me3; short-term dasatinib treatment): reduced | H3K27me3 peaks after drug treatment (H3K27me3; GSC8^12d, GSC8^Per, GSC8 PD0325901^Per): strongly reduced | cell cycle effect (Ki67 / EdU) (GSC8 [2]; 4 d): induced cell cycle arrest and G0 induction | Ki67^+ cells (GSC8 [2]; after 4 days of dasatinib, 93% in naïve): 17%

CC1(COc2ccc3c(c2)ncn3-c2ccc3cccc(N4CCC(N)CC4)c3n2)COC1 [crenolanib]
sensitivity / effect on cell growth (dose-response) (GSC8 [1]): preferentially sensitive | sensitivity / effect on cell growth (dose-response) (GSC8^Per): relatively insensitive; also recorded: tolerated higher concentrations

CCOC(=O)CCNc1cc(N2CCc3ccccc3CC2)nc(-c2cccnc2)n1 [GSKJ5]
sensitivity / effect on cell growth (dose-response) (GSC8^Per): no preferential sensitivity; also recorded: Negligible differential effects

CCOC(=O)CCNc1cc(N2CCc3ccccc3CC2)nc(-c2ccccn2)n1 [GSKJ4]
sensitivity / effect on cell growth (dose-response) (GSC8 [1]): well tolerated | sensitivity / effect on cell growth (dose-response) (GSC8^Per): preferentially sensitive; also recorded: significantly compromised viability | sensitivity / effect on cell growth (dose-response) (GSC8^12d): preferentially sensitive; also recorded: significantly compromised viability | sensitivity / effect on cell growth (dose-response) (GSC8 PD0325901^Per): preferentially sensitive | H3K4me3 peak width / level (H3K4me3): did not significantly increase H3K4me3 | rescue of H3K27me3 loss associated with dasatinib treatment (H3K27me3; GSC8^12d, GSKJ4 1.5 μM, 8 d, after 4 days of dasatinib): rescued the dramatic H3K27me3 loss | effect on pre-existing H3K27me3 landscape (H3K27me3; naïve GSC8, 1.5 μM, 8 d): negligible effects

C[C@H](NC(=O)Cc1cc(F)cc(F)c1)C(=O)N[C@H]1N=C(c2ccccc2)c2ccccc2N(C)C1=O [Compound E]
growth, 12 day treatment (GSC8 [1]; 12 day treatment, naïve GSC8): little effect | growth, 12 day treatment (GSC8^Per): preferentially sensitive | growth, 12 day treatment (GSC8^Per; listed as Notch inhibitor (γ-secretase)): significantly reduced
